Legend:
pre-rRNA [1] = assay: Q-RT-PCR of pre-rRNA in PHA-stimulated splenocytes of naive mice; type: cell-based; details: 72 hours, 25 to 400 nM
Description: RNA samples from similar cultures were also prepared and tested by Q-RT-PCR for pre-rRNA expression levels as described in Example herein below.
(§1) RNA Extraction: For in vivo experiments spleens from EAE mice were isolated at day 17 post immunization and splenocytes were re-stimulated for 72 h hours in the presence of 5.0 μg/ml MOG35-55. For in-vitro experiments spleens from intact mice were isolated and splenocytes were stimulated with for 72 h in the presence of PHA. RNA was extracted from splenocytes of both the in-vitro and in-vivo experiments by robotic ABI PRISM, Applied biosystem 6100 Nucleic Acid Prep Station. To avoid genomic DNA contamination samples were treated with DNase I (Roche). The quality and integrity of the total RNA preparation was confirmed using a NanoDrop 2000c Spectrophotometer (Thermo Scientific).
(§2) Quantitative RT-PCR of Pre-rRNA: Complementary DNA was obtained from the extracted RNA by the High capacity cDNA reverse transcription kit (Applied Biosystems, CA, USA) following manufacturer's instructions. To confirm the role of POL1 pathway suppression by POL1-Inhibitors, the expression level of pre-rRNA transcript, a key gene of the RNA polymerase I pathway, was evaluated by Q-RT-PCR (n=3 per group). […] (SEQ ID NO: 70) with a quantification probe (Roche, Probe ID #1, cat. no. 04684974001). […]

[2] = Bioavailability: serum level after oral gavage or IV; type: in vivo, mice; details: for time to maximal concentration: healthy C57B6J female mice
Description: Bioavailability: Determination of the level of the tested compound in serum was done following oral gavage. Blood samples (0.5 mL) were collected and immediately centrifuged at 5,000 rpm for 10 minutes. The serum was separated and stored at −20° C. until fluoprometric analysis by Tecan SpectraFluor, based on the specific excitation/emission values of the tested compound was conducted. The pharmacokinetic parameters including serum maximum concentration (Cmax), the time needed to reach Cmax (Tmax), and half-life (T1/2), were calculated to evaluate oral bioavailability. The serum concentration after oral gavages was calculated according to a calibration curve for each compound in the serum. The Pharmacokinetic properties of compound 10 were quantified by the LCMS method described below. The concentration of Compound 10 was calculated with a calibration curve. The serum was prepared for analysis using protein precipitation. 15 μL of water were added to 15 μL of serum and a H2O: MeOH: CHCl3 (90:120:30) solution was added. The supernatant was subjected to LCMS analysis equipped with a PHENOMENEX® C-18 RP column.

pre-rRNA [3] = assay: Q-RT-PCR of pre-rRNA in splenocytes of treated EAE mice; type: in vivo; details: 12.5 mg/Kg, 17 days following immunization
Description: as §1
as §2, with “group). All PCR reactions were performed on a Light Cycler 480 instrument (Roche Diagnostic). The pre-rRNA, specific primers used were Forward: […] (SEQ ID NO: 69) and Reverse:” for “group).”

Pol II = assay: Cell-free polymerase II transcription from CMV promoter; type: biochemical, human; details: 200 nM
Description: Transcription by polymerase II from CMV promoter was tested similarly using the template provided HeLa scribe kit of Promega, further processing as described above and analysis of transcript with template specific primers: POL II forward primer: ctatgcgcacccgttctc (SEQ ID NO: 73), Pol II reverse primer: gtagcgaagcgagcagga (SEQ ID NO: 74). Probe ID: #70, cat. no. 04688937001 (Roche), was used for both reactions.

Cc1cnc(CNC(=O)c2/c(=N/c3ccccc3)c3ccc(N4CCCN(C)CC4)nc3n3c2sc2ccccc23)cn1 [Compound 10, (E)-2-(4-methyl-1,4-diazepan-1-yl)-N-((5-methylpyrazin-2-yl)methyl)-5-(phenylimino)-5H-benzo[4,5]thiazolo[3,2-a][1,8]naphthyridine-6-carboxamide]
pre-rRNA mRNA levels expressed by splenocytes (pre-rRNA [1]): significant dose dependent decrease
bioavailability AUC(oral)/AUC(IV) ([2]; 12.5 mg/kg, up to 168 h): 72%
time to maximal concentration ([2]; IV, 12.5 mg/kg): 0.5 h
Cmax compared to Compound 1 ([2]; mice serum, oral gavage): higher
Tmax compared to Compound 1 ([2]; mice serum, oral gavage): lower
clearance compared to Compound 1 ([2]; mice serum, oral gavage): faster
absorption ([2]; oral and IV, 12.5 mg/kg): rapidly absorbed
time to maximal concentration ([2]; oral, 12.5 mg/kg): 2 h
decrease in pre-rRNA mRNA levels compared to vehicle (pre-rRNA [3]): 5.9 folds
effect on Pol II transcription from the CMV promoter (Pol II): 5%
